“Also recorded” adds a separate entry of the source.
Columns and labels:
[1] = Pharmacokinetic profiles in brain and plasma after oral administration; type: in vivo, mice
Experimental: Following administration, mice (BALB/c, male, 20-25 g) were sacrificed at 0.5, 1, 2, 3, and 4 h. The blood and brain tissue were collected and extracted with acetonitrile.

morphine-dependent mice = assay: Naloxone-precipitated morphine withdrawal jumps; type: in vivo; settings: 2 μg/kg, 20 μg/kg, 0.2 mg/kg i.p., 0.2 mg/kg
Experimental: Mice were intraperitoneally injected with an escalating dose of morphine three times daily for 3 days (5, 20, and 40 mg/kg) to induce addiction. On the fourth day, mice were given morphine (40 mg/kg) or vehicle (5 mL/kg). […] The withdrawal was precipitated by naloxone. Each mouse was placed into a transparent plastic box immediately, and the number of jumps was recorded for 15 min.

lactate in BV-2 culture = assay: Extracellular lactic acid assay; type: cell-based; settings: BV-2, 10 μM, LPS 200 ng/mL, 12 h
Experimental: BV-2 cells were seeded at a density of 5×10^5 cells per well in 6-well plates and incubated for 24 h. BV-2 cells were treated with 10 μM CIAC001 or 10 μM Compound 19b in the absence or presence of 200 ng/mL LPS for 12 h. Culture medium was collected and centrifuged (5000 g, 4° C.) for 5 min. The supernates were used for lactic acid contents determination by lactic acid assay kit (A019-2-1, Nanjing Jiancheng Bioengineering Institute).

Open field test = type: in vivo, mice; settings: 20 mg/kg i.p., seven consecutive days
Experimental: After two days of habitation, each mouse was placed in the open field, and the moving distances within 1 h and the grooming and rubbing numbers within the first 15 min was recorded as vehicle control (pre-test group). Next, each mouse was administered CIAC001 (20 mg/kg; i.p.) once daily for 7 days. 24 h after the last administration, the moving distances and the grooming and rubbing numbers were measured again to compare changes before and after CIAC001 treatment.

[2] = biological target: T1, nuclear PKM2 in BV-2 cells (Mus musculus, UniProt P52480); assay: Subcellular localization of PKM2; type: cell-based; settings: BV-2, LPS 200 ng/mL, 10 μM, 6 h
T1 construct: endogenous in cells; host or cells: BV-2 cells
T1 sequence (P52480 whole entry): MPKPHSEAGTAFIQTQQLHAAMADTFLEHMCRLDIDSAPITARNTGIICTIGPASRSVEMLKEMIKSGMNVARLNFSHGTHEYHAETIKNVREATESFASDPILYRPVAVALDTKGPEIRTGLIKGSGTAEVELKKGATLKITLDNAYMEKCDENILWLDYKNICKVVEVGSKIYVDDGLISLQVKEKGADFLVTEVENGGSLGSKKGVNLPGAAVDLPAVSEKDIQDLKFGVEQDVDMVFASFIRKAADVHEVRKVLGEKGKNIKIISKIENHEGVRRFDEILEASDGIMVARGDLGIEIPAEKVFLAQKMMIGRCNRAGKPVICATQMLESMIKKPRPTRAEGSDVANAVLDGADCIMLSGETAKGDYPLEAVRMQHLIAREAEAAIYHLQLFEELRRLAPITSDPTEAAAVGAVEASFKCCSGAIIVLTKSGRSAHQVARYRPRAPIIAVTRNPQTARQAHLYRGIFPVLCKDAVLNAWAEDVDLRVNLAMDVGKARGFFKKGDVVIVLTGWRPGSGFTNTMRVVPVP
Experimental: BV-2 cells were treated with 200 ng/mL LPS and 10 μM CIAC001 for 6 h. Cells were washed, harvested with ice-cold PBS, and centrifuged at 800 g for 5 min at 4° C. Cells were lysed in cytoplasmic lysis buffer (10 mM HEPES pH 7.6, 10 mM KCl, 0.5 mM […], 1.5 mM MgCl2, and 1 mM DTT) plus the protease inhibitor cocktail for 20 min on ice. A final concentration of 0.5% NP40 was added to the lysate and incubated for 2 min on ice. Lysates were centrifuged at 2000 g for 10 min at 4° C., and the supernatants were cytoplasmic lysates. Pellets were washed twice with ice-cold PBS. Nuclear pellets were lysed for 30 min on ice with nuclear lysis buffer (10 mM Tris-HCl pH 7.6, 450 mM NaCl, 2 mM MgCl2, 0.5% NP-40, and 1 mM DTT) plus a protease inhibitor cocktail. Lysates were centrifuged at 12,000 g for 10 min at 4° C., and the supernatants were nuclear lysates. The nuclear lysates were diluted with low-salt buffer (10 mM Tris-HCl pH 7.6 and 2 mM MgCl2) to a final salt concentration of 150 mM in the lysates. The total protein concentrations in the nuclear and cytoplasmic extracts were determined by the BCA assay and then normalized. The lysate supernatants were denatured in 2× Laemmli sample buffer at 100° C. for 8 min for western blotting with the corresponding antibody.

[3] = CPP assay for rewarding effect of CIAC001; type: in vivo, mice; settings: 20 mg/kg i.p.
Experimental: Conditional place conditioning (CPP) was conducted using the classic 10-consecutive-day procedure. On days 1 and 2, each mouse was separately placed into the CPP apparatus for 15 min to habituate the apparatus. On day 3 (preconditioning), the time spent in each compartment was recorded to determine any preference for the two compartments. […] During the conditioning phase, mice were separately isolated in the compartment for 30 min on 6 consecutive days. Mice were given morphine on days 4, 6, and 8, and vehicle (5 mL/kg) was administered on days 5, 7, and 9. The postconditioning phase was carried out 24 h after the last conditioning session. Each mouse was placed in the apparatus and explored freely, and the time spent in each compartment was recorded for 15 min. The CPP score(s) was calculated using the time spent in the drug-paired compartment minus the time spent in the vehicle-paired compartment.

[4] = tested on: 3×Tg Alzheimer's disease mice; assay: Anxiety tests in Alzheimer's disease model mice (high plus maze, open field); type: in vivo; settings: i.p., 45 days
Excerpt: For Alzheimer's disease behavioral experiments (Morris water maze, open field experiment, novel object recognition, Y-maze, and elevated cross maze), triple transgenic mouse models (B6:129-Psen1tm1Mpm Tg (APPswe, tauP301L) 1Lfa/J, 3×Tg) were purchased from the Jax Laboratory in the United States. The wild-type mice (C57BL/6J, WT) were purchased from Beijing Vital River Laboratory Animal Technology Co., Ltd. After 45 days of intraperitoneal injection of CIAC001, all mice were subjected to subsequent behavioral experiments. In order to minimize the use of mice, the mice are first tested for sufficient physical strength and normal mental states. Only one behavioral experiment is conducted per day based on the following schedule: day 1: open field test; day 2-3: novel object recognition; day 3: elevated plus maze; day 4: Y-maze; day 5-13: Morris water maze.
The elevated cross maze consisted of two intersecting open arms (25×5×0.5 cm) and two enclosed arms (25×5×16 cm) that were perpendicular to the open arms. A platform (5×5×0.5 cm) was placed in the center of the maze. […]
At the beginning of the experiment, the mouse was placed in the center area of the elevated cross maze, facing one of the enclosed arms. […] A camera connected to a computer was used to capture the mouse's movements, and the number of entries and time spent in the open and enclosed arms were recorded. […]

PKM2 tetramer / monomer = biological target: T2, PKM2 tetramer / monomer (Mus musculus, UniProt P52480); assay: Western blot of PKM2 tetramer and monomer in LPS-treated cells; type: cell-based
T2 construct: endogenous in cells; host or cells: BV-2 cells
T2 sequence (P52480 whole entry): as above
Excerpt: (§1) ImageJ was used for densitometric analysis.

Hif-1α = Hif-1α western blot in mPFC after chronic morphine; type: in vivo; settings: mice
Excerpt: as §1

C=C(C)[C@@H]1CCC(C)=C[C@H]1c1c(O)cc(C(C)n2nccn2)cc1O (stereo partly drawn) [CIAC001, (1′R,2′R)-4-(1-(2H-1,2,3-Triazol-2-yl)ethyl)-5′-methyl-2′-(prop-1-en-2-yl)-1′,2′,3′,4′-tetrahydro-[1,1′-biphenyl]-2,6-diol]
AUC0→t ([1]; brain, 10 mg/kg p.o., mice): 172.8 ng·h/g | AUC0→∞ ([1]; brain, 10 mg/kg p.o., mice): 191.3 ng·h/g | MRT ([1]; brain, 10 mg/kg p.o., mice): 54 min | brain Cmax ([1]; brain, 10 mg/kg p.o., mice): 175.0 ng/g | t1/2 ([1]; brain, 10 mg/kg p.o., mice): 48 min | Kp ([1]; male, BALB/c, mouse, brain / plasma, oral, 10 mg/kg p.o., read-out: B/P ratios within the first 3 h after administration): > 2 | Kp at 0.5 h ([1]; male, BALB/c, mouse, brain / plasma, po, 0.5 h, 10 mg/kg p.o., read-out: B/P ratio): 3.31 ± 0.382 | Kp at 1 h ([1]; male, BALB/c, mouse, brain / plasma, po, 1 h, 10 mg/kg p.o., read-out: B/P ratio): 3.63 ± 0.425 | Kp at 2 h ([1]; male, BALB/c, mouse, brain / plasma, po, 2 h, 10 mg/kg p.o., read-out: B/P ratio): 4.12 ± 1.44 | Kp at 3 h ([1]; male, BALB/c, mouse, brain / plasma, po, 3 h, 10 mg/kg p.o., read-out: B/P ratio): 5.76 ± 1.34 | Tmax ([1]; male, BALB/c, mouse, po, brain, 10 mg/kg p.o., mice, read-out: Tmax): 18 min | BBB permeability and CNS pharmacokinetics compared to CBD ([1]; oral administration): better BBB permeability and CNS pharmacokinetics | brain Cmax relative to CBD ([1]; vs CBD, 10 mg/kg p.o.): approximately 2 times | naloxone-precipitated withdrawal jumps (morphine-dependent mice): dose-dependently attenuated; also recorded: ameliorated | LPS-induced lactate release (lactate in BV-2 culture): significantly inhibited | grooming and rubbing behaviors (open field) (Open field test): No apparent differences | motor activity (open field) (Open field test): No apparent differences | LPS-induced translocation of nuclear PKM2 [2]: completely reversed; also recorded: inhibited LPS-induced translocation of nuclear PKM2 | rewarding effect (CPP after 6 consecutive days of training) [3]: did not show any effect on CPP | Alzheimer's disease induced anxiety (arm entry activity, grid traversal) [4]: restored arm entry activity and grid traversal | LPS-induced decline of the PKM2 tetramer (PKM2 tetramer / monomer): reversed the LPS-induced decline of the PKM2 tetramer | LPS-induced rise of the PKM2 monomer (PKM2 tetramer / monomer): inhibit the LPS-induced rise of the PKM2 monomer; also recorded: inhibited LPS-induced rise of the PKM2 monomer | chronic morphine-induced Hif-1α overexpression in mPFC (Hif-1α): inhibit chronic morphine-induced Hif-1α overexpression

— patent US20260242320A1, “USE OF CANNABIDIOL DERIVATIVE IN PREPARATION OF MEDICAMENT” (priority 2023, published 2026)
